Two compounds from article PMC5723347, “Silencing of D-Lactate Dehydrogenase Impedes Glyoxalase System and Leads to Methylglyoxal Accumulation and Growth Inhibition in Rice” (Frontiers in Plant Science, 2017) can be followed below.

Read-outs that look alike come from different tables or passages of the source.

The assay relates to T1, OsD-LDH-FL.
T1 construct: full-length 561 residues including mitochondrial targeting peptide, N-terminal GST tag kept (pGEX-6P-1), 87 kDa fusion, expressed in E. coli BL21 (DE3)
As to the kind of experiment: spectrophotometric cytochrome c reduction at […] nm, Hanes-Woolf. Conditions: 200 μM cytochrome c as electron acceptor, pH 8.35, 30°C, 50 mM potassium phosphate. The assay is classed as biochemical, Oryza sativa subsp. indica.

Turning to `CC[C@@H](O)C(=O)O` [D-2-hydroxybutyrate], for the setting “read-out: D-2-HB / KM”, the Km came out at 11 ± 0.34 µM.

Consider `C[C@@H](O)C(=O)O` [D-lactate], for which the Km (read-out: D-LACTATE / KM) turned out to be 41.4 ± 2.93 µM.
